Patent US20110190313A1, “Treatment of Pulmonary Arterial Hypertension” (priority 2008, published 2011)
Like-named read-outs stand apart in the source and are kept apart here.

Assays:
[1] = tested on: patients with severe pulmonary arterial hypertension; test: Example 2 trial: 6-minute walk test (6MWD); type: in vivo, human; conditions: for 6MWD change vs. baseline, mean (SD): study end, patients with both baseline and end of study assessment
Source text: Secondary objectives included changes in hemodynamic variables, and in FC.
(§1) Patients (≧18 years) in FC II-IV with idiopathic or familial PAH, or PAH associated with systemic sclerosis or congenital heart disease (WHO group I) and PVR>300 dynes·sec·cm^−5 were eligible. Patients were on stable PAH medication(s) for >3 months before enrolment. Females of child-bearing potential used double-barrier contraception.
(§2) The primary efficacy outcome was the between-group difference in the 6MW distance (6MWD) at baseline and at 6 months. Complete hemodynamic parameters were assessed with standard techniques. FC was classified according to the WHO modification of the NYHA criteria for pulmonary hypertension.
(§3) Analyses were conducted within the intention-to-treat (ITT) population, which consisted of all patients who received at least one dose of study medication. Dropouts were excluded from the analysis The primary efficacy analysis (6MWD) was performed using analysis of covariance (ANCOVA) with baseline value as a covariate. ANCOVAs were also used to assess between-group differences in pulmonary hemodynamics and blood gases. Missing data were not imputed so only subjects with assessment both at baseline and post-treatment were included in the ANCOVA analysis. FC was compared using Fisher's test.

[2] = tested on: patients with severe pulmonary arterial hypertension; test: Example 2 trial: pulmonary hemodynamics; type: in vivo, human
Method: as §1, §2, §3

[3] = tested on: patients with severe pulmonary arterial hypertension; test: Example 2 trial: blood gases (oxygen saturation); type: in vivo, human
Method: as §3

[4] = tested on: patients with severe pulmonary arterial hypertension
[5] = end of study, with imatinib treatment

Cc1ccc(NC(=O)c2ccc(CN3CCN(C)CC3)cc2)cc1Nc1nccc(-c2cccnc2)n1 [imatinib]
6MWD treatment difference imatinib vs. placebo ([1]; ANCOVA of ITT population, p=0.21): 21.7 m
6MWD change vs. baseline, mean (SD) [1]: +22±63 m
6MWD change vs. baseline, mean (SD) ([1]; listed as Imatinib): 22 (63) m
PAPm, imatinib vs. placebo ([2]; 6 months, result in words): no significant difference
Cardiac output (CO) mean treatment difference vs. placebo ([2]; 6 months, 95% CI 0.10, 1.26, p=0.02): 0.68 L/min
PVR mean treatment difference vs. placebo ([2]; 6 months, 95% CI −383.7, −77.8, p=0.004): −230.7 dynes
Change between baseline and study end for PAPm, CO, PVR or 6MWD ([2]; post-hoc subgroup, baseline PVR<1,000 dynes·sec·cm^−5): no major differences
Change between baseline and study end for PAPm, CO, PVR and 6MWD compared with placebo ([2]; post-hoc subgroup, baseline PVR≧1,000 dynes·sec·cm^−5): substantial improvement
Systemic arterial oxygen saturation, mean treatment difference vs. placebo ([3]; 95% CI 0.5, 4.3): 2.4%
Mixed venous oxygen saturation, mean treatment difference vs. placebo ([3]; 95% CI 2.1, 11.9): 7.0%
Mixed venous oxygen saturation ([3]; baseline): 58±10%
Systemic arterial oxygen saturation ([3]; baseline): 88±9%
Mixed venous oxygen saturation [3, 5]: 65±7%
Systemic arterial oxygen saturation [3, 5]: 93±5%
Haemoglobin level (±SD) ([4]; after the fall with imatinib): 128 ± 16 g/L
Haemoglobin level (±SD) ([4]; before the fall (start value)): 151 ± 14 g/L
Deaths in group ([4]; during 6 month study): three
AE headache, number of patients ([4]; imatinib group): 10
AE headache, percent of patients ([4]; imatinib group): 35.7%
AE nausea, percent of patients ([4]; imatinib group): 50%
AE peripheral edema, number of patients ([4]; imatinib group): 7
AE peripheral edema, percent of patients ([4]; imatinib group): 25.0%
Patients reporting AEs of mild intensity, number ([4]; imatinib group): 21
Patients reporting AEs of mild intensity, percent ([4]; imatinib group): 75%
Patients reporting AEs of moderate intensity, number ([4]; imatinib group): 20
Patients reporting AEs of moderate intensity, percent ([4]; imatinib group): 71%
Patients reporting AEs of severe intensity, number ([4]; imatinib group): 9
Patients reporting AEs of severe intensity, percent ([4]; imatinib group): 32%
Patients with rupture of the pulmonary artery (fatal) ([4]; imatinib group): One
Serious AEs (SAEs), number of recipients ([4]; imatinib group): 11
Serious AEs (SAEs), percent of recipients ([4]; imatinib group): 39%
AE nausea, number of patients ([4]; imatinib group N = 28): 14
Safety and tolerability in patients with PAH ([4]; over 6 months, result in words): safe and well tolerated
Changes over time in other laboratory variables (white blood cell count, platelet count, albumin, liver enzymes, creatinine, electrolytes etc.) ([4]; result in words): no relevant changes
